Assay results reported in patent US7678884B2, “Biologically active peptide and agent containing the same” (Seikagaku Corporation, priority 2003, dated 2010).
Ends that are not written are not given here.

Columns and labels:
OCCM30 cells = experiment: Cell differentiation of OCCM30 cells (ALP activity); assay type: cell-based, mouse; conditions: DMEM containing 2% FBS; versus control (FIG. 11)
Protocol: As mouse-derived cementoblasts, cells of the OCCM30 cell strain (Bone, 1999 Jul., 25(1):39-47) were used. This cell strain was provided from Professor Somerman of School of Dentistry University of Washington.
As an index of cell differentiation, alkaline phosphatase (ALP) activity of cells was determined. Cells were inoculated in a 24-well culture plate at a ratio of 5×10^3 cells/well, added with the peptide (a) at various concentrations and cultured in DMEM or αMEM containing 2% FBS. One week after the time point when the cells reached a confluent state, ALP activity was determined by the following enzymochemical method (Bessey-Lowry method, Bessey O A, Lowry O H and Brock M J, A method for the rapid determination of alkaline phosphatase with five cubic millimeter of serum, J. Biol. Chem., 164:321-329, 1946).
The cultured cells were washed with PBS and then disrupted in 10 mM Tris-HCl buffer (pH 7.4, 500 μl) for 40 seconds by using an ultrasonic homogenizer (Handy Sonic model UR-20P, Tomy Seiko) and stirred. Then, 25 μl of this sample liquid was added to 125 μl of ALP buffer (0.1 M carbonate buffer, pH 9.8, 6.7 mM p-nitrophenyl phosphate, 2 mM MgCl2) and incubated at 37° C. for 30 minutes. The reaction was terminated by addition of 125 μl of 0.2 N NaOH, and absorbance was measured at 405 nm by using a microplate reader (Model 550, Bio-Rad Laboratories). […]

[1] = system: Human-derived Periodontal Ligament Cells (PDL Cells); experiment: Cell growth of PDL cells (cell number by Coulter counter); assay type: cell-based; conditions: peptide added at various concentrations to DMEM containing 2% FBS; counted on Days 4 and 6; versus control medium (FIG. 1, FIG. 2)
Description: PDL cells were isolated from a healthy premolar carefully extracted from a patient who visited a hospital to extract teeth for orthodontic treatment so that periodontal ligament should not be damaged as far as possible, and cultured. The extracted tooth was washed with sterilized physiological saline and phosphate-buffered saline (PBS, Nissui), and then periodontal ligament existing in ⅓ of the tooth root at the center was scraped off with a sharp knife. The pieces of periodontal ligament were transferred to a plastic plate and minced into small fragments using a round-blade knife. Tissue fragments were left standing in a plate having a diameter of 35 mm (FALCON) and cultured in Dulbecco's modified Eagle medium (DMEM, Nissui) containing antibiotics (100 U/ml of penicillin G, 100 μg/ml of streptomycin and 250 μg/ml of gentamicin) and 10% fetal bovine serum (FBS, EQUITECH-BIO) at 37° C. under 5% CO2. […]
The PDL cells prepared in (1) were inoculated on a 24-well culture plate (FALCON) at a ratio of 5×10^3 cells/well. […] On Days 4 and 6, the cells were separated and dispersed by using PBS containing 0.08% trypsin and 0.04% ethylenediaminetetraacetic acid (EDTA), and cell number was counted by using a Coulter counter (COULTER Z1, Coulter Electronics). […]

[2] = system: periodontal disease model; experiment: Periodontal disease model (histology of defect at first molar of the upper jaw); assay type: in vivo, Wistar rats; conditions: one month after operation
Protocol: The following experiment was performed in order to examine action of the peptide of the present invention on a periodontal disease model. • (i) Preparation of Periodontal Disease Model 8-week old Wistar rats were systemically anesthetized with an ethyl carbamate solution in a volume of 0.5 ml per 100 g of body weight, and then the mesial gingiva of each first molar on the upper jaw was vertically incised. The gingival periosteal flap was reflected to expose the mesial alveolar bone of the first molar. Then, a defect having a length of about 2 mm and a buccolingual diameter of about 1 mm was formed from the alveolar bone crest of the same site towards the root apex side by using a fissure bur under pouring saline to expose the mesial root face of the first molar on the upper jaw. The root cementum and surface of dentin was removed together with the periodontal ligament attached to the exposed root face so as to make a shallow cavity. • (ii) Test Method At the aforementioned defect, a sample prepared with 1% PBS solution of sodium hyaluronate (weight average molecular weight: 900,000) was applied on the exposed root face, and the gingival periosteal flap was repositioned and sutured. By using a group of the animals applied with 1% PBS solution of sodium hyaluronate containing the peptide (a) (concentration of the peptide (a): 0.3 mg/ml) as the peptide group, a group of the animals applied with 1% PBS solution of sodium hyaluronate alone as the hyaluronic acid group, and a group of the animals applied with no substance before suture of the gingival periosteal flap for restoration as the control group, healing conditions were compared one month after the operation. The animals were euthanized with chloroform, and each experimental site was excised. The excised upper jaw bone was fixed by immersion in neutrally buffered formalin for 1 day and then decalcified over 2 days by using a rapid decalcifying solution (K-CX). The specimen was embedded in paraffin in a conventional manner, then a mesiodistal section having a thickness of […] and parallel to the longitudinal axis of the tooth root was prepared at the experiment site and stained with hematoxylin/eosin. Adhesion condition of periodontal tissue to the exposed surface of the tooth root at the defective site and the position of the apex of the alveolar bone were evaluated light microscopically. • (iii) Results (Findings)

[3] = peptide (a) 0.3 mg/ml in 1% PBS solution of sodium hyaluronate

VPAFPRQPGTPGVASL [Peptide (a)]
cell differentiation promoting effect (ALP activity) on OCCM30 cells (OCCM30 cells): significant cell differentiation promoting effect
PDL cell number (cell growth promoting effect) [1]: significantly increased
down-growth of the epithelium ([2]; peptide (a) 0.3 mg/ml in 1% PBS solution of sodium hyaluronate applied on exposed root face, versus control and hyaluronic acid groups): observed to a less extent
deposition of cementum with Sharpey's fibers on the exposed root surface [2, 3]: deposition of cementum with Sharpey's fibers, that is, new connective tissue attachment formation, was observed
separation between the gingiva and the tooth root [2, 3]: no such separation was observed
bone regeneration at the periodontal defect ([2]; peptide (a) 0.3 mg/ml in 1% PBS solution of sodium hyaluronate, versus control and hyaluronic acid groups): more active than in the other two groups
